# Assay: Biodistribution: radioactivity in rat brain tissue after intravenous injection
# Type: in vivo
# Conditions: for signal relative to cerebellum in hippocampus and cortex: IV injection; for radioactivity in blood / radioactivity in cerebellum / radioactivity in entorhinal cortex / radioactivity in hippocampus / radioactivity in hypothalamus / radioactivity in inferior colliculi / radioactivity in occipital cortex / radioactivity in olfactory tubercles / radioactivity in plasma (shown for comparison) / radioactivity in pons with medulla / radioactivity in prefrontal cortex / radioactivity in somatosensory cortex / radioactivity in striata / radioactivity in superior colliculi / radioactivity in thalamus: intravenous injection
# Procedure: N-(2-Chloro-5-(2-[^18F]fluoro-ethylthio))-phenyl-N′-(3-methylthio)-phenyl-N′-methylguanidine was prepared according to Example 4 (synthesis formulation ˜3% ethanol in 0.9% w/v saline solution) with a radiochemical purity of ˜99% and, at time of injection, the specific activity ranged from 4-16 GBq/nmol^−1. Biodistribution and blood data were from 11 adult male Sprague-Dawley rats (body weight range, 269 to 329 g; mean±S.E.=300±18 g). N-(2-Chloro-5-(2-[^18F]fluoro-ethylthio))-phenyl-N′-(3-methylthio)-phenyl-N′-methylguanidine was injected directly into the tail vein of each rat whilst under isoflurane anaesthesia. Each animal was then allowed to recover from anaesthesia. At designated times after injection, rats were sacrificed by cervical dislocation under anaesthesia and brain and body tissues were rapidly sampled.
# The data were acquired using two syntheses. Rats were given an average of 86 MBq (85.3 MBq for first experimental day and 87.3 MBq for the second experimental day), in a volume of 0.20 ml (synthesis formulation ˜3% alcohol), via direct intravenous injection through the tail vein. The mass of co-injected N-(2-Chloro-5-(2-[^18F]fluoro-ethylthio))-phenyl-N′-(3-methylthio)-phenyl-N′-methylguanidine ranged from 0.7-2.9 nmol.kg^−1. Details of the methodology, together with processing and counting of the samples can be found in Hume et al., Nucl. Med. Biol. (1991) 18: 339-351. Data were normalised for injected radioactivity and body weight, giving: ‘uptake units’=(cpm.g^−1 wet weight tissue)·(injected cpm.g^−1 body weight)^−1 Results
# Radioactivity concentration data are additionally collated in Tables 1 (peripheral tissue) and 2 (brain). As metabolite studies were not carried out, the proportion of the total radioactivity reflecting label associated with parent N-(2-Chloro-5-(2-[^18F]fluoro-ethylthio))-phenyl-N′-(3-methylthio)-phenyl-N′-methylguanidine is not known. Note, Blood and plasma samples were collected post-mortem from the heart ventricle.
compound,measurement,setting,value
CSc1cccc(N(C)C(=N)Nc2cc(SCC[18F])ccc2Cl)c1 [N-(2-Chloro-5-(2-[^18F]fluoro-ethylthio))-phenyl-N′-(3-methylthio)-phenyl-N′-methylguanidine],initial uptake in all brain tissues,2 minutes after IV injection,~4 uptake units
same,activity in all brain tissues,90 minutes after radioligand injection,~0.4 uptake units
same,signal relative to cerebellum in hippocampus and cortex,by 90 minutes,1
same,signal relative to cerebellum in hippocampus and cortex,reached over the first 40 minutes,1.3
same,signal relative to cerebellum in hippocampus and cortex,start of the first 40 minutes,~0.8
same,rat brain uptake of radioactivity,earliest sample time (2 min) after IV injection,high uptake of radioactivity
same,radioactivity in blood,"2 min, n = 1",0.288 uptake units
same,radioactivity in cerebellum,"2 min, n = 1",4.204 uptake units
same,radioactivity in entorhinal cortex,"2 min, n = 1",2.766 uptake units
same,radioactivity in hippocampus,"2 min, n = 1",2.864 uptake units
same,radioactivity in hypothalamus,"2 min, n = 1",3.397 uptake units
same,radioactivity in inferior colliculi,"2 min, n = 1",6.716 uptake units
same,radioactivity in occipital cortex,"2 min, n = 1",4.008 uptake units
same,radioactivity in olfactory tubercles,"2 min, n = 1",2.826 uptake units
same,radioactivity in plasma (shown for comparison),"2 min, n = 1",0.264 uptake units
same,radioactivity in pons with medulla,"2 min, n = 1",3.678 uptake units
same,radioactivity in prefrontal cortex,"2 min, n = 1",3.808 uptake units
same,radioactivity in somatosensory cortex,"2 min, n = 1",3.531 uptake units
same,radioactivity in striata,"2 min, n = 1",2.306 uptake units
same,radioactivity in superior colliculi,"2 min, n = 1",4.977 uptake units
same,radioactivity in thalamus,"2 min, n = 1",4.460 uptake units
same,radioactivity in blood,"5 min, n = 1",0.261 uptake units
same,radioactivity in cerebellum,"5 min, n = 1",2.761 uptake units
same,radioactivity in entorhinal cortex,"5 min, n = 1",2.442 uptake units
same,radioactivity in hippocampus,"5 min, n = 1",2.250 uptake units
same,radioactivity in hypothalamus,"5 min, n = 1",2.443 uptake units
same,radioactivity in inferior colliculi,"5 min, n = 1",3.292 uptake units
same,radioactivity in occipital cortex,"5 min, n = 1",2.883 uptake units
same,radioactivity in olfactory tubercles,"5 min, n = 1",3.062 uptake units
same,radioactivity in plasma (shown for comparison),"5 min, n = 1",0.135 uptake units
same,radioactivity in pons with medulla,"5 min, n = 1",2.877 uptake units
same,radioactivity in prefrontal cortex,"5 min, n = 1",3.099 uptake units
same,radioactivity in somatosensory cortex,"5 min, n = 1",2.772 uptake units
same,radioactivity in striata,"5 min, n = 1",1.817 uptake units
same,radioactivity in superior colliculi,"5 min, n = 1",3.541 uptake units
same,radioactivity in thalamus,"5 min, n = 1",2.566 uptake units
same,radioactivity in blood,"10 min, n = 2",0.146 uptake units
same,radioactivity in cerebellum,"10 min, n = 2",1.451 uptake units
same,radioactivity in entorhinal cortex,"10 min, n = 2",1.404 uptake units
same,radioactivity in hippocampus,"10 min, n = 2",1.396 uptake units
same,radioactivity in hypothalamus,"10 min, n = 2",1.275 uptake units
same,radioactivity in inferior colliculi,"10 min, n = 2",1.539 uptake units
same,radioactivity in occipital cortex,"10 min, n = 2",1.651 uptake units
same,radioactivity in olfactory tubercles,"10 min, n = 2",1.300 uptake units
same,radioactivity in plasma (shown for comparison),"10 min, n = 2",0.102 uptake units
same,radioactivity in pons with medulla,"10 min, n = 2",1.530 uptake units
same,radioactivity in prefrontal cortex,"10 min, n = 2",1.649 uptake units
same,radioactivity in somatosensory cortex,"10 min, n = 2",1.588 uptake units
same,radioactivity in striata,"10 min, n = 2",1.433 uptake units
same,radioactivity in superior colliculi,"10 min, n = 2",1.677 uptake units
same,radioactivity in thalamus,"10 min, n = 2",1.353 uptake units
same,radioactivity in blood,"30 min, n = 3, mean ± SD",0.269 ± 0.042 uptake units
same,radioactivity in cerebellum,"30 min, n = 3, mean ± SD",0.919 ± 0.110 uptake units
same,radioactivity in entorhinal cortex,"30 min, n = 3, mean ± SD",0.941 ± 0.086 uptake units
same,radioactivity in hippocampus,"30 min, n = 3, mean ± SD",1.088 ± 0.142 uptake units
same,radioactivity in hypothalamus,"30 min, n = 3, mean ± SD",1.076 ± 0.250 uptake units
same,radioactivity in inferior colliculi,"30 min, n = 3, mean ± SD",0.841 ± 0.084 uptake units
same,radioactivity in occipital cortex,"30 min, n = 3, mean ± SD",1.041 ± 0.067 uptake units
same,radioactivity in olfactory tubercles,"30 min, n = 3, mean ± SD",0.981 ± 0.235 uptake units
same,radioactivity in plasma (shown for comparison),"30 min, n = 3, mean ± SD",0.229 ± 0.047 uptake units
same,radioactivity in pons with medulla,"30 min, n = 3, mean ± SD",1.110 ± 0.129 uptake units
same,radioactivity in prefrontal cortex,"30 min, n = 3, mean ± SD",1.168 ± 0.042 uptake units
same,radioactivity in somatosensory cortex,"30 min, n = 3, mean ± SD",1.037 ± 0.103 uptake units
same,radioactivity in striata,"30 min, n = 3, mean ± SD",1.101 ± 0.202 uptake units
same,radioactivity in superior colliculi,"30 min, n = 3, mean ± SD",1.086 ± 0.286 uptake units
same,radioactivity in thalamus,"30 min, n = 3, mean ± SD",1.415 ± 0.203 uptake units
same,radioactivity in blood,"60 min, n = 3, mean ± SD",0.229 ± 0.068 uptake units
same,radioactivity in cerebellum,"60 min, n = 3, mean ± SD",0.454 ± 0.082 uptake units
same,radioactivity in entorhinal cortex,"60 min, n = 3, mean ± SD",0.502 ± 0.095 uptake units
same,radioactivity in hippocampus,"60 min, n = 3, mean ± SD",0.548 ± 0.119 uptake units
same,radioactivity in hypothalamus,"60 min, n = 3, mean ± SD",0.533 ± 0.115 uptake units
same,radioactivity in inferior colliculi,"60 min, n = 3, mean ± SD",0.456 ± 0.079 uptake units
same,radioactivity in occipital cortex,"60 min, n = 3, mean ± SD",0.541 ± 0.124 uptake units
same,radioactivity in olfactory tubercles,"60 min, n = 3, mean ± SD",0.504 ± 0.062 uptake units
same,radioactivity in plasma (shown for comparison),"60 min, n = 3, mean ± SD",0.222 ± 0.055 uptake units
same,radioactivity in pons with medulla,"60 min, n = 3, mean ± SD",0.551 ± 0.143 uptake units
same,radioactivity in prefrontal cortex,"60 min, n = 3, mean ± SD",0.519 ± 0.105 uptake units
same,radioactivity in somatosensory cortex,"60 min, n = 3, mean ± SD",0.517 ± 0.107 uptake units
same,radioactivity in striata,"60 min, n = 3, mean ± SD",0.481 ± 0.136 uptake units
same,radioactivity in superior colliculi,"60 min, n = 3, mean ± SD",0.486 ± 0.101 uptake units
same,radioactivity in thalamus,"60 min, n = 3, mean ± SD",0.553 ± 0.108 uptake units
same,radioactivity in blood,"90 min, n = 1",0.180 uptake units
same,radioactivity in cerebellum,"90 min, n = 1",0.366 uptake units
same,radioactivity in entorhinal cortex,"90 min, n = 1",0.383 uptake units
same,radioactivity in hippocampus,"90 min, n = 1",0.391 uptake units
same,radioactivity in hypothalamus,"90 min, n = 1",0.466 uptake units
same,radioactivity in inferior colliculi,"90 min, n = 1",0.306 uptake units
same,radioactivity in occipital cortex,"90 min, n = 1",0.423 uptake units
same,radioactivity in olfactory tubercles,"90 min, n = 1",0.504 uptake units
same,radioactivity in plasma (shown for comparison),"90 min, n = 1",0.163 uptake units
same,radioactivity in pons with medulla,"90 min, n = 1",0.406 uptake units
same,radioactivity in prefrontal cortex,"90 min, n = 1",0.414 uptake units
same,radioactivity in somatosensory cortex,"90 min, n = 1",0.376 uptake units
same,radioactivity in striata,"90 min, n = 1",0.485 uptake units
same,radioactivity in superior colliculi,"90 min, n = 1",0.386 uptake units
same,radioactivity in thalamus,"90 min, n = 1",0.551 uptake units

# Source: patent US8058311B2, “Imaging 18F or 11C-labelled alkylthiophenyl guanidines” (Hammersmith Imanet Limited, priority 2005, dated 2011)
